In PMC7576618 (British Journal of Clinical Pharmacology, 2020):
“And” between values parts separate entries of the source, which are not always exact repeats. Equal values may be shown once. “Also recorded” adds a separate entry of the source.

What was measured:
[1] = tested on: spontaneous locomotor activity in rats; assay: Spontaneous locomotor activity; details: doses similar to those which block psychostimulants‐induced hyperlocomotion
[2] = SAD study: urinary excretion; assay type: in vivo, human; details: for CL renal: both, human, oral
[3] = tested on: MK‐801‐induced social recognition deficits in rats; assay: MK-801-induced social recognition deficits; details: MGS0008 1, 3, 10 mg kg^-1 p.o., MK-801 0.2 mg kg^-1 i.p.
[4] = MAD study: urinary excretion; assay type: in vivo, human; details: urine, MAD Day 14; for CL renal: both, human, oral, CLr, mean (CV[%])
mGlu3 receptor = details: read-out: in vitro EC50 for mGlu3 receptor; authors' assay system; cited from earlier work
[5] = SAD study: plasma pharmacokinetics after single oral TS-134; assay type: in vivo, human; details: for AUC / Cmax / half-life / Tmax: both, human, plasma; for AUC: AUC0‐inf; for AUC / Cmax: mean (CV[%]); for Tmax: median
[6] = MAD study: plasma pharmacokinetics after multiple oral dose titration of TS-134; assay type: in vivo, human; details: for AUC / half-life: both, human, plasma, oral, MAD Day 14, fed; for AUC: AUC0‐tau, mean (CV[%]); for half-life: t1/2, mean (CV[%])
[7] = tested on: memantine‐increased 2‐deoxy‐D‐glucose uptake in the prefrontal cortex; assay: Memantine-induced 2-deoxy-D-glucose uptake in the prefrontal cortex; details: mice; MGS0008 0.3, 1, 3 mg kg^-1 s.c.; memantine 30 mg kg^-1 s.c.
[8] = SAD study Part B: CSF pharmacokinetics of MGS0008 after 10 mg TS-134; assay type: in vivo, human; details: 10 mg TS‐134 under fed condition
[9] = tested on: phencyclidine‐induced locomotor hyperactivity in rats; assay: Phencyclidine-induced locomotor hyperactivity; details: MGS0008 1, 3, 10 mg kg^-1 p.o., phencyclidine 3 mg kg^-1 s.c.
[10] = tested on: methamphetamine‐induced locomotor hyperactivity in rats; assay: Methamphetamine-induced locomotor hyperactivity; details: MGS0008 1, 3, 10 mg kg^-1 p.o., methamphetamine 1 mg kg^-1 s.c.
[11] = rats; cited from earlier work
[12] = oral, 5 mg, SAD Parts A and C, 5 mg fasted (n = 6)
[13] = oral, 10 mg, SAD Parts A and C, 10 mg fasted (n = 4)
[14] = oral, 10 mg, SAD Parts A and C, 10 mg fed (n = 3)
[15] = oral, 20 mg, SAD Parts A and C, 20 mg fasted (n = 3)
[16] = oral, 20 mg, SAD Parts A and C, 20 mg fed (n = 3)

Compound: N[C@]1(C(=O)O)[C@H]2[C@@H](C[C@@H]1F)[C@@H]2C(=O)O [MGS0008, (1S,2S,3S,5R,6S)‐2‐amino‐3‐fluorobicyclo[3.1.0]hexane‐2,6‐dicarboxylic acid]
- effect on spontaneous locomotor activity [1]: significantly reduced
- urinary excretion rate, % of the administered doses ([2]; SAD and MAD studies, dose range 5–80 mg): 29.38 to 69.01% and 29.38–69.01%
- CL renal ([2]; urine and plasma, renal clearance, range, SAD and MAD studies): 70.6 to 103 mL/min
- CL renal ([2]; urine, 5 mg, CLr, mean (CV[%]), SAD Parts A and C, 5 mg fasted (n = 6)): 101 mL/min
- CL renal ([2]; urine, 10 mg, CLr, mean (CV[%]), SAD Parts A and C, 10 mg fasted (n = 4)): 89.8 mL/min
- CL renal ([2]; urine, 10 mg, CLr, mean (CV[%]), SAD Parts A and C, 10 mg fed (n = 3)): 103 mL/min
- CL renal ([2]; urine, 20 mg, CLr, mean (CV[%]), SAD Parts A and C, 20 mg fasted (n = 3)): 73.9 mL/min
- CL renal ([2]; urine, 20 mg, CLr, mean (CV[%]), SAD Parts A and C, 20 mg fed (n = 3)): 70.6 mL/min
- Fe (0–48), mean (CV[%]) ([2]; urine, SAD Part B, 10 mg fed (n = 7)): 55.77 (15.99) %
- Fe (0–48), mean (CV[%]) ([2]; urine, SAD Parts A and C, 5 mg fasted (n = 6)): 69.01 (10.23) %
- Fe (0–48), mean (CV[%]) ([2]; urine, SAD Parts A and C, 10 mg fasted (n = 4)): 60.61 (36.10) %
- Fe (0–48), mean (CV[%]) ([2]; urine, SAD Parts A and C, 10 mg fed (n = 3)): 49.65 (38.35) %
- Fe (0–48), mean (CV[%]) ([2]; urine, SAD Parts A and C, 20 mg fasted (n = 3)): 38.55 (65.52) %
- Fe (0–48), mean (CV[%]) ([2]; urine, SAD Parts A and C, 20 mg fed (n = 3)): 29.38 (52.53) %
- effect on MK‐801‐induced impaired social memory [3]: significantly reversed
- CL renal ([4]; 5 mg, 5 mg (n = 8)): 85.2 mL/min
- CL renal ([4]; 10 mg, 10 mg (n = 8)): 88.2 mL/min
- CL renal ([4]; 20 mg, 20 mg (n = 8)): 103 mL/min
- CL renal ([4]; 40 mg, 40 mg (n = 8)): 93.3 mL/min
- CL renal ([4]; 60 mg, 60 mg (n = 8)): 78.7 mL/min
- Fe (0–24), mean (CV[%]) ([4]; 5 mg (n = 8)): 48.03 (36.10) %
- Fe (0–24), mean (CV[%]) ([4]; 10 mg (n = 8)): 51.79 (24.95) %
- Fe (0–24), mean (CV[%]) ([4]; 20 mg (n = 8)): 50.42 (20.58) %
- Fe (0–24), mean (CV[%]) ([4]; 40 mg (n = 8)): 48.06 (13.48) %
- Fe (0–24), mean (CV[%]) ([4]; 60 mg (n = 8)): 50.48 (24.14) %
- Fe (0–24), mean (CV[%]) ([4]; 80 mg Cohort 5 (n = 7)): 43.69 (36.76) %
- Fe (0–24), mean (CV[%]) ([4]; 80 mg Cohort 6 (n = 6)): 37.21 (35.47) %
- EC50 (mGlu3 receptor): 45.4 nM
- reduction of plasma AUC in the fed group (food effect) ([5]; SAD, 10 and 20 mg TS‐134): ≤ 25%
- reduction of plasma Cmax in the fed group (food effect) ([5]; SAD, 10 and 20 mg TS‐134): up to 57%
- AUC [5, 12]: 278 ng·h/mL
- Cmax [5, 12]: 25.9 ng/mL
- half-life ([5]; oral, 5 mg, t1/2, mean (CV[%]), SAD Parts A and C, 5 mg fasted (n = 6)): 7.75 h
- Tmax [5, 12]: 2 h
- AUC [5, 13]: 535 ng·h/mL
- AUC [5, 14]: 390 ng·h/mL
- Cmax [5, 13]: 60.6 ng/mL
- Cmax [5, 14]: 28.1 ng/mL
- half-life ([5]; oral, 10 mg, t1/2, mean (CV[%]), SAD Part B, 10 mg fed (n = 7)): 8.49 h
- half-life ([5]; oral, 10 mg, t1/2, mean (CV[%]), SAD Parts A and C, 10 mg fasted (n = 4)): 8.41 h
- half-life ([5]; oral, 10 mg, t1/2, mean (CV[%]), SAD Parts A and C, 10 mg fed (n = 3)): 8.7 h
- Tmax [5, 13]: 2 h
- Tmax [5, 14]: 4 h
- AUC [5, 15]: 840 ng·h/mL
- AUC [5, 16]: 677 ng·h/mL
- Cmax [5, 15]: 89.4 ng/mL
- Cmax [5, 16]: 60.2 ng/mL
- half-life ([5]; oral, 20 mg, t1/2, mean (CV[%]), SAD Parts A and C, 20 mg fasted (n = 3)): 6.96 h
- half-life ([5]; oral, 20 mg, t1/2, mean (CV[%]), SAD Parts A and C, 20 mg fed (n = 3)): 6.91 h
- Tmax [5, 15]: 3 h
- Tmax [5, 16]: 2 h
- half-life ([5]; po, terminal half‐life (t1/2) in plasma, single and multiple oral administration of TS‐134 (SAD and MAD studies)): ~10 h
- plasma Cmax of MGS0008 relative to that of MGS0274 ([5]; molar ratio, SAD and MAD studies): approximately 6 fold
- plasma AUC of MGS0008 relative to that of MGS0274 ([5]; molar ratio, all treatment groups with or without food): approximately 30 fold
- dose proportionality of steady‐state plasma Cmax and AUC ([6]; MAD, 5–80 mg): increased dose proportionally; also recorded: dose proportional increases
- time for plasma trough concentrations to reach steady state ([6]; after initiating multiple doses of target dose levels, data not shown): ≤ 2 days
- AUC ([6]; 5 mg, 5 mg (n = 8)): 233 ng·h/mL
- half-life ([6]; 5 mg, 5 mg (n = 8)): 9.68 h
- AUC ([6]; 10 mg, 10 mg (n = 8)): 475 ng·h/mL
- half-life ([6]; 10 mg, 10 mg (n = 8)): 10.9 h
- AUC ([6]; 20 mg, 20 mg (n = 8)): 817 ng·h/mL
- half-life ([6]; 20 mg, 20 mg (n = 8)): 10.4 h
- AUC ([6]; 40 mg, 40 mg (n = 8)): 1640 ng·h/mL
- half-life ([6]; 40 mg, 40 mg (n = 8)): 10.3 h
- AUC ([6]; 60 mg, 60 mg (n = 8)): 3100 ng·h/mL
- half-life ([6]; 60 mg, 60 mg (n = 8)): 9.43 h
- effect on memantine‐increased 2‐deoxy‐D‐glucose uptake (2‐DG6P) in the prefrontal cortex [7]: attenuated
- mean CSF Cmax (molar) [8]: 6.12 nM
- effect on phencyclidine‐induced locomotor hyperactivity [9]: significantly attenuated
- effect on methamphetamine‐induced locomotor hyperactivity [10]: significantly attenuated
- CSF‐to‐plasma AUC ratio [11]: 2.8%
- presence in the cerebrospinal fluid (CSF) after oral administration of MGS0008 [11]: detected
